Results published in ChEMBL document CHEMBL5360617, “C-2 Thiophenyl Tryptophan Trimers Inhibit Cellular Entry of SARS-CoV-2 through Interaction with the Viral Spike (S) Protein” (J Med Chem, 2023).

Assays:
SARS-CoV-2 [1] = assay: (§1) Antiviral activity VSV-S pseudotyped SARS-CoV-2 Wuhan-Hu-1 harboring MN908947 mutant infected in human A549-ACE2 cells assessed as reduction in viral production at 10 uM preincubated with virus for 1 hrs followed by cell infection for 1 hrs and measured 24 hrs after replacement with fresh media with compound relative to control; assay type: functional, Severe acute respiratory syndrome coronavirus 2; parameters: scale not given: the % may be the effect or the level left; details: time 26 hrs
SARS-CoV-2 [2] = assay: as §1, with “Green monkey VeroE6/TMPRSS2” for “human A549-ACE2”; assay type: functional, Severe acute respiratory syndrome coronavirus 2; parameters: scale not given: the % may be the effect or the level left; details: time 26 hrs

Row | SMILES | Activity (SARS-CoV-2 [1]) | Activity (SARS-CoV-2 [2])
1 | CCC(CC)COC(=O)[C@H](C)N[P@](=O)(OC[C@H]1O[C@@](C#N)(c2ccc3c(N)ncnn23)[C@H](O)[C@@H]1O)Oc1ccccc1 | >98% | >89%
2 | O=C(CCOCCOCCOCCOCCC(=O)NCC(=O)NC(CCC(=O)NC(Cc1c(Sc2ccc([N+](=O)[O-])cc2)[nH]c2ccccc12)C(=O)O)(CCC(=O)NC(Cc1c(Sc2ccc([N+](=O)[O-])cc2)[nH]c2ccccc12)C(=O)O)CCC(=O)NC(Cc1c(Sc2ccc([N+](=O)[O-])cc2)[nH]c2ccccc12)C(=O)O)NCC(=O)NC(CCC(=O)NC(Cc1c(Sc2ccc([N+](=O)[O-])cc2)[nH]c2ccccc12)C(=O)O)(CCC(=O)NC(Cc1c(Sc2ccc([N+](=O)[O-])cc2)[nH]c2ccccc12)C(=O)O)CCC(=O)NC(Cc1c(Sc2ccc([N+](=O)[O-])cc2)[nH]c2ccccc12)C(=O)O (stereo unspecified) | >98% | >89%
3 | NCCOCCOCCC(=O)NCC(=O)NC(CCC(=O)NC(Cc1c(Sc2ccc([N+](=O)[O-])cc2)[nH]c2ccccc12)C(=O)O)(CCC(=O)NC(Cc1c(Sc2ccc([N+](=O)[O-])cc2)[nH]c2ccccc12)C(=O)O)CCC(=O)NC(Cc1c(Sc2ccc([N+](=O)[O-])cc2)[nH]c2ccccc12)C(=O)O (stereo unspecified) | >98% | >89%
